Assay results as given in patent US7605168B2 (Plexxikon, Inc., priority 2004, dated 2009).
pIC50: −log10 of the molar value.

What was measured:
Format in all cases: biochemical
[1] = biological target: T1, PDE4D5: full-length human PDE4D5 isozyme (Homo sapiens, UniProt Q08499); experiment: PDE4 IC50 determination by Scintillation Proximity Assay (SPA), full-length PDE4D5; conditions: cell lysate, [3H]cAMP SPA
T1 construct: made in house; host or cells: baculovirus infected insect cells (pFastBacHT)
T1 sequence (Q08499 with tags, fused parts or gaps isoform Q08499-6): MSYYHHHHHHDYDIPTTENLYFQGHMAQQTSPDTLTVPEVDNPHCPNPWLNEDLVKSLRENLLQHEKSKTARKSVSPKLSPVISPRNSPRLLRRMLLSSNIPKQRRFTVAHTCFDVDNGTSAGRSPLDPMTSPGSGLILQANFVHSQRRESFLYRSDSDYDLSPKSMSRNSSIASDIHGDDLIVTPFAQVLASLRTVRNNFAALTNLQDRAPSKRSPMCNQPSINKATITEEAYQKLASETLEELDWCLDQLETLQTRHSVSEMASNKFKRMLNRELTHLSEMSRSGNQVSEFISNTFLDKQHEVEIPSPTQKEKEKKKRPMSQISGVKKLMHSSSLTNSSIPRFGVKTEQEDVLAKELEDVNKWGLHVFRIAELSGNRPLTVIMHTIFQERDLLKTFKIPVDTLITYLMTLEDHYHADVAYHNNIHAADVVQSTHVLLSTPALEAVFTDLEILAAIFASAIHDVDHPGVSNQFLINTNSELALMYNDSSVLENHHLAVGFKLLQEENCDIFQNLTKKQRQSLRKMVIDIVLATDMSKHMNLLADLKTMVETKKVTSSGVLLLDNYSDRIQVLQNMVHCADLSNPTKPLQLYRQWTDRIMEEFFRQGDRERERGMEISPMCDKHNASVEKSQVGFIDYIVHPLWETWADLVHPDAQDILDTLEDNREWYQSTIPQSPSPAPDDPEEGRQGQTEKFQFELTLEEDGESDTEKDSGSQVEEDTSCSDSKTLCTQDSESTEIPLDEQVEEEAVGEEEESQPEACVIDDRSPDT
Description: (§1) The enzyme was not purified from the cell lysates, so enzyme concentrations were not determined. Enzyme was stored in 50% glycerol at −20°.
(§2) IC50s were determined by Scintillation Proximity Assay (SPA). The principle of the assay is based on the fact that cAMP, the PDE4 substrate, binds weakly to Yittrium Silicate SPA beads, whereas AMP, the product of PDE4 hydrolysis binds strongly. Thus, the extent of PDE4 hydrolysis of a sample of [^3H]cAMP can be measured because only the [^3H]AMP produced by PDE4 hydrolysis will bind to the SPA beads and produce a scintillation signal.
(§3) In addition to the compound dilutions, each assay plate contained control wells with 1 μl of DMSO (to define 0% enzyme inhibition) or 1 μl of 200 μM roflumilast (to define 100% enzyme inhibition). Using a Beckman FX robot, 10 μl of [^3H] cAMP (Amersham TRK559) at […] in assay buffer (50 mM Tris, pH 7.5; 8.3 mM MgCl; 1.7 mM EGTA; 0.01% BSA) was transferred to each assay well. Next, 10 μl of PDE4 enzyme in assay buffer was added and the plates were shaken for 30 s. at 1000 rpm to start the cAMP hydrolysis reaction. The concentrations of enzyme used were: PDE4B, 80 ng/ml; PDE4D, 4 ng/ml; PDE4B2, 2.5 μl of 50% glycerol stock/ml; PDE4D5 0.083 μl of 50% glycerol stock/ml. Assay plates were covered and incubated for 30 min. at 30° C. Reactions were stopped by robotic addition of 10 μl of 5 mg/ml SPA beads (Amersham RPNQ0013) in 18 mM ZnSO4. The assay plates were covered with clear plastic film, centrifuged for 1 min. at 1000 RPM to settle the SPA beads, and counted using a Wallac TriLux scintillation counter. IC50's were calculated from the raw assay data by non-linear regression curve fitting using the Assay Explorer software package from MDL.

[2] = biological target: T2, PDE4B2: full-length human PDE4B2 isozyme (Homo sapiens, UniProt Q07343); experiment: PDE4 IC50 determination by Scintillation Proximity Assay (SPA), full-length PDE4B2; conditions: cell lysate, [3H]cAMP SPA
T2 construct: made in house; host or cells: baculovirus infected insect cells (pFastBacHT)
T2 sequence (Q07343 with tags, fused parts or gaps isoform Q07343-2): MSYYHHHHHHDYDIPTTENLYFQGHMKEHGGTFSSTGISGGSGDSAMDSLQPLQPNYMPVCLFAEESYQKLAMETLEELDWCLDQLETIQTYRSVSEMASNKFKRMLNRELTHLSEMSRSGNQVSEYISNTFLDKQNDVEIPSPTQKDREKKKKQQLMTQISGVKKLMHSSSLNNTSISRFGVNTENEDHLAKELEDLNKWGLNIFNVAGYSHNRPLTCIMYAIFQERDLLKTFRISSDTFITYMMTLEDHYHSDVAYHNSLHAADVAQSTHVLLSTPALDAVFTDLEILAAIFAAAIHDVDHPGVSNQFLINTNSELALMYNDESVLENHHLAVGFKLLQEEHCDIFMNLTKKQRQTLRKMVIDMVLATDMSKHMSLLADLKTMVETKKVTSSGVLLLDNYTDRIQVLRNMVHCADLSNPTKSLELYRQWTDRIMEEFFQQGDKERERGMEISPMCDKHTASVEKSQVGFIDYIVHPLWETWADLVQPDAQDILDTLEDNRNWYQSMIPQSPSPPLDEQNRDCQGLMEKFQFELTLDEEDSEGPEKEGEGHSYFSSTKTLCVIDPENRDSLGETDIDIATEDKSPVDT
Description: as §1, §2, §3

[3] = biological target: T3, PDE4B: catalytic domain of human PDE4B from S152-S528 (Homo sapiens, UniProt Q07343); experiment: PDE4 IC50 determination by Scintillation Proximity Assay (SPA), PDE4B catalytic domain; conditions: [3H]cAMP SPA, 30 min at 30° C.
T3 construct: The catalytic domain of human PDE4B from S152-S528; His6 (N, cleaved yes); thrombin cleavage site (N, cleaved yes); made in house; host or cells: E. coli BL21 (DE3) RIL
T3 sequence (Q07343 324-700): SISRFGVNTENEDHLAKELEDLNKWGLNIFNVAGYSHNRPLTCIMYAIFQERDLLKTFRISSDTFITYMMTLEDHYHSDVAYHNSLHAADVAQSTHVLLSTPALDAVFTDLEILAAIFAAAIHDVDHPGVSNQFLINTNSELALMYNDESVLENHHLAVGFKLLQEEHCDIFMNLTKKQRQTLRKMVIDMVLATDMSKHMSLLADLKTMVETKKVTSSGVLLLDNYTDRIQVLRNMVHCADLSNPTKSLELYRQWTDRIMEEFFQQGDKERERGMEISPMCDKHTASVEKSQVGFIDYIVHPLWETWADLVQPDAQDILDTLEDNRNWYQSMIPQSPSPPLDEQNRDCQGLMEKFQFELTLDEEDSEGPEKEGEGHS
Description: as §2
Enzyme was stored in 50% glycerol at −20°.
as §3

SMILES	pIC50 [1]	pIC50 [2]	pIC50 [3]
COc1ccc(-c2cn(S(=O)(=O)c3cccc4cc(C)cnc34)c3ncccc23)cc1OC [Compound 13, 8-[3-(3,4-Dimethoxy-phenyl)-pyrrolo[2,3-b]pyridine-1-sulfonyl]-3-methyl-quinoline]	> 5.00	> 5.00	> 5.00
CCOC(=O)c1ccc(NC(=O)n2cc(-c3ccc(OC)c(OC)c3)c3cccnc32)cc1 [Compound 33, 4-[3-(3,4-Dimethoxy-phenyl)-pyrrolo[2,3-b]pyridine-1-carbonyl]-amino-benzoic acid ethyl ester]	< 5.00	> 5.00	> 5.00
COc1ccc(NC(=O)n2cc(-c3ccc(OC)c(OC)c3)c3cccnc32)cc1 [Compound 39, 3-(3,4-Dimethoxy-phenyl)-pyrrolo[2,3-b]pyridine-1-carboxylic acid (4-methoxy-phenyl)-amide]	< 5.00	> 5.00	> 5.00
COc1ccc(-c2cn(C(=O)Nc3ccc(C(C)=O)cc3)c3ncccc23)cc1OC [Compound 40, 3-(3,4-Dimethoxy-phenyl)-pyrrolo[2,3-b]pyridine-1-carboxylic acid (4-acetyl-phenyl)-amide]	> 5.00	> 5.00	> 5.00
CSc1nccc(-c2cn(S(=O)(=O)c3cccc4cccnc34)c3ncccc23)n1 [Compound 46, 8-[3-(2-Methylsulfanyl-pyrimidin-4-yl)-pyrrolo[2,3-b]pyridine-1-sulfonyl]-quinoline]	> 5.00	> 5.00	> 5.00
COc1ccc2c(c1)c(-c1ccc(OC)c(OC)c1)cn2S(=O)(=O)c1cccc2cc(C)cnc12 [Compound 94, 8-[3-(3,4-Dimethoxy-phenyl)-5-methoxy-indole-1-sulfonyl]-3-methyl-quinoline]	> 5.00	> 5.00	–
COc1ccc(-c2cn(C(=O)Nc3ccc(F)c([N+](=O)[O-])c3)c3ncccc23)cc1OC1CCCC1 [Compound 98, 3-(3-Cyclopentyloxy-4-methoxy-phenyl)-pyrrolo[2,3-b]pyridine-1-carboxylic acid (3-nitro-4-fluoro-phenyl)-amide]	> 5.00	> 5.00	–
COc1ccc(-c2cn(S(=O)(=O)c3ccccc3)c3ccccc23)cc1OC1CCCC1 [Compound 99, 1-Benzenesulfonyl-3-(3-cyclopentyloxy-4-methoxy-phenyl)-1H-indole]	> 5.00	> 5.00	> 5.00
CCOc1ccc(C(=O)n2cc(-c3ccc(OC)c(OC)c3)c3cccnc32)c(OCC)c1 [Compound 111, (2,4-Diethoxy-phenyl)-[3-(3,4-dimethoxy-phenyl)-pyrrolo[2,3-b]pyridin-1-yl]-methanone]	> 5.00	> 5.00	> 5.00
CCOc1ccc2ccccc2c1C(=O)n1cc(-c2cccc(C(=O)OC)c2)c2cccnc21 [Compound 120, 3-[1-(2-Ethoxy-naphthalene-1-carbonyl)-1H-pyrrolo[2,3-b]pyridin-3-yl]-benzoic acid methyl ester]	> 5.00	> 5.00	–
CCOC(=O)c1ccc(C#Cc2cn(S(=O)(=O)c3ccccc3)c3ncc(-c4ccc(OC)c(OC)c4)cc23)cc1 [Compound 135, 4-[1-Benzenesulfonyl-5-(3,4-dimethoxy-phenyl)-1H-pyrrolo[2,3-b]pyridin-3-ylethynyl]-benzoic acid ethyl ester]	–	> 5.00	–
COc1ccc(-c2cnc3c(c2)c(C#Cc2ccccc2)cn3S(=O)(=O)c2ccccc2)cc1OC [Compound 136, 1-Benzenesulfonyl-5-(3,4-dimethoxy-phenyl)-3-phenylethynyl-1H-pyrrolo[2,3-b]pyridine]	> 5.00	> 5.00	–
COC(=O)c1cccc(C#Cc2cn(S(=O)(=O)c3ccccc3)c3ncc(-c4ccc(OC)c(OC)c4)cc23)c1 [Compound 137, 3-[1-Benzenesulfonyl-5-(3,4-dimethoxy-phenyl)-1H-pyrrolo[2,3-b]pyridin-3-ylethynyl]-benzoic acid methyl ester]	> 5.00	> 5.00	–
Cc1[nH]c2ncccc2c1-c1ccc2c(c1)OCO2 [Compound 142, 3-Benzo[1,3]dioxol-5-yl-2-methyl-1H-pyrrolo[2,3-b]pyridine]	< 5.00	< 5.00	> 5.00

Now from value to compound:

pIC50 [1]	pIC50 [2]	pIC50 [3]	SMILES
> 5.00	> 5.00	> 5.00	COc1ccc(-c2cn(S(=O)(=O)c3ccc(-c4ccccc4)cc3)c3ncccc23)cc1OC [Compound 10, 1-(Biphenyl-4-sulfonyl)-3-(3,4-dimethoxy-phenyl)-1H-pyrrolo[2,3-b]pyridine]
> 5.00	> 5.00	> 5.00	COc1ccc(-c2cn(S(=O)(=O)c3ccc(Oc4ccccc4)cc3)c3ncccc23)cc1OC [Compound 15, 3-(3,4-Dimethoxy-phenyl)-1-(4-phenoxy-benzenesulfonyl)-1H-pyrrolo[2,3-b]pyridine]
> 5.00	> 5.00	> 5.00	COc1ccc(-c2cn(S(=O)(=O)c3ccccc3)c3ccccc23)cc1OC [Compound 19, 1-benzenesulfonyl-3-(3,4-dimethoxy-phenyl)-1H-indole]
< 5.00	< 5.00	< 5.00	COc1ccc(-c2cn(C(=O)Nc3cccc(F)c3)c3ncccc23)cc1OC [Compound 35, 3-(3,4-Dimethoxy-phenyl)-pyrrolo[2,3-b]pyridine-1-carboxylic acid(3-fluoro-phenyl)-amide]
> 5.00	> 5.00	> 5.00	COc1ncc(-c2cn(S(=O)(=O)Cc3ccccc3)c3ncccc23)cn1 [Compound 45, 3-(2-Methoxy-pyrimidin-5-yl)-1-phenylmethanesulfonyl-1H-pyrrolo[2,3-b]pyridine]
> 5.00	> 5.00	> 5.00	COc1ccc(CC(=O)n2cc(-c3ccc(OC)c(OC)c3)c3cccnc32)cc1 [Compound 60, 1-[3-(3,4-Dimethoxy-phenyl)-pyrrolo[2,3-b]pyridin-1-yl]-2-(4-methoxy-phenyl)-ethanone-amide]
> 5.00	> 5.00	–	COc1ccc(-c2c[nH]c3ncccc23)cc1OCc1ccccc1 [Compound 89, 3-(3-Benzyloxy-4-methoxy-phenyl)-1H-pyrrolo[2,3-b]pyridine]
< 5.00	< 5.00	< 5.00	c1cnc2[nH]cc(-c3ccc4c(c3)OCO4)c2c1 [Compound 90, 3-Benzo[1,3]dioxol-5-yl-1H-pyrrolo[2,3-b]pyridine]
> 5.00	> 5.00	–	COc1ccc(-c2cn(C(=O)c3ccc(Cl)nc3)c3ncccc23)cc1OC [Compound 107, (6-Chloro-pyridin-3-yl)-[3-(3,4-dimethoxy-phenyl)-pyrrolo[2,3-b]pyridin-1-yl]-methanone]
> 5.00	> 5.00	–	COc1ccc(-c2cn(C(=O)[C@@H]3C[C@H]3c3ccccc3)c3ncccc23)cc1OC [Compound 108, [3-(3,4-Dimethoxy-phenyl)-pyrrolo[2,3-b]pyridin-1-yl]-((1R,2R)-2-phenyl-trans-cyclopropyl)-methanone]
> 5.00	> 5.00	–	COc1ccc(-c2cn(C(=O)c3ccccc3Oc3ccccc3)c3ncccc23)cc1OC [Compound 118, [3-(3,4-Dimethoxy-phenyl)-pyrrolo[2,3-b]pyridin-1-yl]-(2-phenoxy-phenyl)-methanone]
> 5.00	> 5.00	–	CCOc1ccc2ccccc2c1C(=O)n1cc(-c2ccc(O)c(OC)c2)c2cccnc21 [Compound 123, (2-Ethoxy-naphthalen-1-yl)-[3-(4-hydroxy-3-methoxy-phenyl)-pyrrolo[2,3-b]pyridin-1-yl]-methanone]
> 5.00	> 5.00	–	COc1cc(-c2cn(S(=O)(=O)c3ccccc3)c3ncccc23)ccc1OCc1cc(-c2ccccc2)no1 [Compound 125, 1-Benzenesulfonyl-3-[3-methoxy-4-(3-phenyl-isoxazol-5-ylmethoxy)-phenyl]-1H-pyrrolo[2,3-b]pyridine]
> 5.00	> 5.00	–	COc1ccc(-c2cn(S(=O)(=O)c3ccccc3)c3ncccc23)cc1O [Compound 141, 5-(1-Benzenesulfonyl-1H-pyrrolo[2,3-b]pyridin-3-yl)-2-methoxy-phenol]
